In US20260200964A1, “MONOSACCARIDES, PHARMACEUTICAL COMPOSITIONS, AND DIAGNOSTIC AND THERAPEUTIC APPLICATIONS” (Surio Therapeutics Co., LTD., priority 2022, published 2026):

Legend:
[1] = test system: A549 cells; test: Flow cytometry analysis of cell labeling (azido labeling efficiency); assay type: cell-based; details: Homo sapiens; A549 cells (lung); azido compound 25 μM, 48 h; mean fluorescence of live cells compared with PBS negative control
Description: (§1) Cells (2.0×10^6 cells/mL, 2 mL) were seeded in a 6-well culture plate and attached at 37° C. overnight. After washed thrice with PBS, the cells were incubated with an azido compound (25 μM) at 37° C. for 48 h. After washed thrice with PBS, the cells were incubated with DBCO-biotin (50 μM) in 500 μL serum free DMEM at 37° C. for 1 h. The cells were washed thrice with PBS and then incubated with streptavidin-Cy5 (5 μg/mL) in 500 μL serum free DMEM at 37° C. for 1 h. The cells were washed thrice with PBS, followed by addition of 300 μL 1×trypsin/EDTA for digestion. The lifted cells were transferred to a 1.5 mL EP tube, centrifuge at 1,000 rpm for 3 min, and washed with PBS once. Finally, 500 μL PBS containing 4% PFA was added to the cell pellet to fix the cells. The cell suspension was transferred to a flow tube and mixed with 10 μL of a PI working solution (50 μg/mL) at room temperature for 30 min before being subjected to flow cytometry.
(§2) Flow cytometry was used to characterize the labeling efficiency of a compound provided herein. After cells were labeled with an azido group, DBCO-biotin was added to specifically react with the azido group. Avidin-Cy5 was added bind to the cell surface biotin for a flow cytometry analysis. Dead cells were stained with PI and excluded from the analysis. Results were presented as the mean fluorescence of live cells, compared with PBS as a negative control and Ac4ManNAz (AAM) as a positive control, Ac4ManNAz (AAM, CAS: 361154-30-5).

[2] = Compound stability in a biological matrix (mouse plasma); assay type: in vitro ADME; details: 10 μg/mL, 37° C., LC-MS/MS
Description: (§3) A compound was dissolved in DMSO as a 1 mg/mL stock solution. An ACN solution of the compound at 100 μg/mL was prepared from the stock solution, 10 μL of which was added to a biological matrix (90 μL) to the final concentration of 10 μg/mL for the compound. The mixtures of the compound in a biological matrix were incubated at 37° C. for 0, 0.5, 1, or 4 h. At each time point, ACN (900 μL) was added to a mixture. After the mixture was centrifuged at 15,000 rpm for 5 min, the supernatant was mixed with the same volume of H2O (1% TFA) and then analyzed by LC-MS/MS. The results are summarized in Table 3, wherein Cbz-AAM is (2R,3S,4R,5S)-6-((4-((S)-6-acetamido-2-(((benzyloxy)carbonyl)amino)hexan-amido)phenyl)(phenyl)methoxy)-2-(acetoxymethyl)-5-(2-azidoacetamido)tetrahydro-2H-pyran-3,4-diyl diacetate.

[3] = Compound stability in a biological matrix (human plasma); assay type: in vitro ADME; details: 10 μg/mL, 37° C., LC-MS/MS
Description: as §3

[4] = test system: MDA-MB-231; test: Flow cytometry analysis of cell labeling (azido labeling efficiency); assay type: cell-based; details: MDA-MB-231 (breast), azido compound 25 μM, 48 h
Description: as §1, §2

[5] = test system: OVCAR3; test: as above; assay type: cell-based; details: OVCAR3 (ovarian), azido compound 25 μM, 48 h
Description: as §1, §2

[6] = mean fluorescence of live cells compared with Ac4ManNAz (AAM) positive control
[7] = mean fluorescence of live cells compared with PBS negative control

SMILES | Compound Remaining (%) Mouse 1 h [2] [%] | Compound Remaining (%) Mouse 4 h [2] [%] | Compound Remaining (%) Human 1 h [3] [%] | Compound Remaining (%) Human 4 h [3] [%] | activity at 25 µM [1] [%] | Labeling Efficiency AAM % [4, 6] [%] | Labeling Efficiency PBS % [4, 7] [%] | Labeling Efficiency AAM % [5, 6] [%] | Labeling Efficiency PBS % [5, 7] [%]
CC(=O)NCCCC[C@H](NC(C)=O)C(=O)Nc1ccc(C(OC2OC(COC(C)=O)C(OC(C)=O)C(OC(C)=O)C2NC(=O)CN=[N+]=[N-])c2cncs2)cc1 (stereo partly drawn) [Compound A16, 1-O-(1-(Thiazol-5-yl)-1-(4-(2(S),6-diacetamidohexanamido)phenyl)methyl)-2-(2-azidoacetylamino)-2-deoxy-3,4,6-tri-O-acetyl-D-mannopyranoside] | 93 | 73 | 97 | 86 | 136 | – | – | – | –
CC(=O)NCCCC[C@H](NC(=O)OCc1ccccc1)C(=O)Nc1ccc(C(OC2OC(COC(C)=O)C(OC(C)=O)C(OC(C)=O)C2NC(=O)CN=[N+]=[N-])c2ccnn2C)cc1 (stereo partly drawn) [Compound A8, 1-O-(1-(2-methylpyrazol-3-yl)-1-(4-(6-acetamido-2(S)-(benzyloxycarbonyl-amino)hexanamido)phenyl)methyl)-2-(2-azidoacetylamino)-2-deoxy-3,4,6-tri-O-acetyl-D-mannopyranoside] | 76 | 23 | 61 | 16 | 196 | 31 | 209 | 24 | 132

Further lines, with some results ahead:

Compound Remaining (%) Mouse 1 h [2] [%] | Compound Remaining (%) Mouse 4 h [2] [%] | Compound Remaining (%) Human 1 h [3] [%] | Compound Remaining (%) Human 4 h [3] [%] | SMILES | activity at 25 µM [1] [%] | Labeling Efficiency AAM % [4, 6] [%] | Labeling Efficiency PBS % [4, 7] [%] | Labeling Efficiency AAM % [5, 6] [%] | Labeling Efficiency PBS % [5, 7] [%]
100 | 93 | 95 | 85 | CC(=O)NCCCC[C@H](NC(C)=O)C(=O)Nc1ccc(C(OC2OC(COC(=O)C3CCN(C)CC3)C(OC(C)=O)C(OC(C)=O)C2NC(=O)CN=[N+]=[N-])c2ccnn2C)cc1 (stereo partly drawn) [Compound A18, 1-O-(1-(2-Methylpyrazol-3-yl)-1-(4-(2(S),6-diacetamidohexanamido)phenyl)-methyl)-2-(2-azidoacetylamino)-2-deoxy-3,4-di-O-acetyl-6-O-(1-methylpiperidin-4-ylcarbonyl)-D-mannopyranoside] | 104 | – | – | – | –
2 | <2 | 2 | <2 | CC(=O)NCCCC[C@H](NC(C)=O)C(=O)Nc1ccc(C(OC2OC(COC(C)=O)C(OC(C)=O)C(OC(C)=O)C2NC(=O)CN=[N+]=[N-])c2nccs2)cc1 (stereo partly drawn) [Compound A15, 1-O-(1-(Thiazol-2-yl)-1-(4-(2(S),6-diacetamidohexanamido)phenyl)methyl)-2-(2-azidoacetylamino)-2-deoxy-3,4,6-tri-O-acetyl-D-mannopyranoside] | 318 | – | – | – | –
91 | 72 | 94 | 70 | CC(=O)NCCCC[C@H](NC(=O)OCc1ccccc1)C(=O)Nc1ccc(C(OC2OC(COC(C)=O)C(OC(C)=O)C(OC(C)=O)C2NC(=O)CN=[N+]=[N-])c2cnc[nH]2)cc1 (stereo partly drawn) [Compound A1, 1-O-(1-(imidazol-4-yl)-1-(4-(6-acetamido-2(S)-(benzyloxycarbonylamino)-hexanamido)phenyl)methyl)-2-(2-azidoacetylamino)-2-deoxy-3,4,6-tri-O-acetyl-D-mannopyranoside] | 103 | – | – | – | –
2 | 2 | 2 | 1 | CC(=O)NCCCC[C@H](NC(=O)OCc1ccccc1)C(=O)Nc1ccc(C(OC2OC(COC(C)=O)C(OC(C)=O)C(OC(C)=O)C2NC(=O)CN=[N+]=[N-])c2ccsc2)cc1 (stereo partly drawn) [Compound A5, 1-O-(1-(Thien-3-yl)-1-(4-(6-acetamido-2(S)-(benzyloxycarbonylamino)hexan-amido)phenyl)methyl)-2-(2-azidoacetylamino)-2-deoxy-3,4,6-tri-O-acetyl-D-mannopyranoside] | 130 | – | – | – | –
